Each structure is given as a SMILES string.

This experiment addresses T1, IL-17A/A (Homo sapiens, UniProt Q16552).
T1 construct: purchased Genscript Z03228
T1 sequence (Q16552 24-155): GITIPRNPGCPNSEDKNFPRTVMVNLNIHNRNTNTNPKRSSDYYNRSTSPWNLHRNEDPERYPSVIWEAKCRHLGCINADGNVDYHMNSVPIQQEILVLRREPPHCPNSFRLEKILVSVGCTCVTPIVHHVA
In words: IL-17A/A HEK-Blue cell assay. It is filed as cell-based. The conditions noted are these: HEK-Blue IL-17A reporter cell line (HEK 293), IL-17A/A stimulation, 20 hours incubation, SEAP read at A630. In outline:
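HEK293 reporter cells expressing IL-17RA, IL-17RC and Act1 were given titrated compound (top final 10, 1 or 0.3 uM; 0.1% DMSO) right before IL-17A/A and incubated 20 hours. NFκB-driven SEAP in the media was read at A630 with Quanti-Blue, and IC50 came from a 4-parameter nonlinear fit.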
On to `Cc1conc1C(=O)N[C@H](c1cn2nc(CC3C[C@@H](C(F)(F)F)CNC3=O)ccc2n1)C1CCC(F)(F)CC1` (stereo partly drawn) [Compound 103, N-((1S)-(4,4-difluorocyclohexyl)(6-(((5R)-2-oxo-5-(trifluoromethyl)piperidin-3-yl)methyl)imidazo[1,2-b]pyridazin-2-yl)methyl)-4-methylisoxazole-3-carboxamide], for which the IC50 lay in the range of 100 to 1000 nM.
Under `O=C(N[C@H](c1cn2nc(CC3C[C@@H](C(F)(F)F)CNC3=O)ccc2n1)C1CCC(F)(F)CC1)c1nonc1C1CC1` (stereo partly drawn) [Compound 104, 4-cyclopropyl-N-((1S)-(4,4-difluorocyclohexyl)(6-(((5R)-2-oxo-5-(trifluoromethyl)piperidin-3-yl)methyl)imidazo[1,2-b]pyridazin-2-yl)methyl)-1,2,5-oxadiazole-3-carboxamide] stands < 100 nM; under `O=C(N[C@H](c1cn2nc(CC3C[C@@H](C(F)(F)F)CNC3=O)ccc2n1)C1CCC(F)(F)CC1)c1ccnn1CC(F)(F)F` (stereo partly drawn) [Compound 105, N-((1S)-(4,4-difluorocyclohexyl)(6-(((5R)-2-oxo-5-(trifluoromethyl)piperidin-3-yl)methyl)imidazo[1,2-b]pyridazin-2-yl)methyl)-1-(2,2,2-trifluoroethyl)-1H-pyrazole-5-carboxamide], 100 to 1000 nM.
As to `O=C(N[C@H](c1cn2nc(CC3C[C@@H](C(F)(F)F)CNC3=O)ccc2n1)C1CCC(F)(F)CC1)c1ccnn1CC(F)F` (stereo partly drawn) [Compound 106, N-((1S)-(4,4-difluorocyclohexyl)(6-(((5R)-2-oxo-5-(trifluoromethyl)piperidin-3-yl)methyl)imidazo[1,2-b]pyridazin-2-yl)methyl)-1-(2,2-difluoroethyl)-1H-pyrazole-5-carboxamide], the IC50 lay within 100 to 1000 nM.
Consider `CC(C)n1nncc1C(=O)N[C@H](c1cn2nc(CC3C[C@@H](C(F)(F)F)CNC3=O)ccc2n1)C1CCC(F)(F)CC1` (stereo partly drawn) [Compound 107, N-((1S)-(4,4-difluorocyclohexyl)(6-(((5R)-2-oxo-5-(trifluoromethyl)piperidin-3-yl)methyl)imidazo[1,2-b]pyridazin-2-yl)methyl)-1-isopropyl-1H-1,2,3-triazole-5-carboxamide], for which the IC50 lay in the range of 100 to 1000 nM.
As to `CCn1nncc1C(=O)N[C@H](c1cn2nc(CC3C[C@@H](C(F)(F)F)CNC3=O)ccc2n1)C1CCC(F)(F)CC1` (stereo partly drawn) [Compound 108, N-((1S)-(4,4-difluorocyclohexyl)(6-(((5R)-2-oxo-5-(trifluoromethyl)piperidin-3-yl)methyl)imidazo[1,2-b]pyridazin-2-yl)methyl)-1-ethyl-1H-1,2,3-triazole-5-carboxamide], the half-maximal inhibitory concentration (IC50) lay in the range of 100 to 1000 nM.
Turning to `O=C(N[C@H](c1cn2nc(CC3C[C@@H](C(F)(F)F)CNC3=O)ccc2n1)C1CCC(F)(F)CC1)c1cnnn1CCF` (stereo partly drawn) [Compound 109, N-((1S)-(4,4-difluorocyclohexyl)(6-(((5R)-2-oxo-5-(trifluoromethyl)piperidin-3-yl)methyl)imidazo[1,2-b]pyridazin-2-yl)methyl)-1-(2-fluoroethyl)-1H-1,2,3-triazole-5-carboxamide], the IC50 was 100 to 1000 nM.
For `O=C(N[C@H](c1cn2nc(CC3C[C@@H](C(F)(F)F)CNC3=O)ccc2n1)C1CCC(F)(F)CC1)c1conc1CCF` (stereo partly drawn) [Compound 110, N-((1S)-(4,4-difluorocyclohexyl)(6-(((5R)-2-oxo-5-(trifluoromethyl)piperidin-3-yl)methyl)imidazo[1,2-b]pyridazin-2-yl)methyl)-3-(2-fluoroethyl)isoxazole-4-carboxamide], the IC50 fell in the range of 100 to 1000 nM.
On to `CC(C)n1nccc1C(=O)N[C@H](c1cn2nc(CC3C[C@@H](C(F)(F)F)CNC3=O)ccc2n1)C1CCC(F)(F)CC1` (stereo partly drawn) [Compound 111, N-((1S)-(4,4-difluorocyclohexyl)(6-(((5R)-2-oxo-5-(trifluoromethyl)piperidin-3-yl)methyl)imidazo[1,2-b]pyridazin-2-yl)methyl)-1-isopropyl-1H-pyrazole-5-carboxamide], for which the half-inhibitory concentration (IC50) was < 100 nM.
Consider `CCc1nonc1C(=O)N[C@H](c1cn2nc(CC3C[C@@H](C(F)(F)F)CNC3=O)ccc2n1)C1CCC(F)(F)CC1` (stereo partly drawn) [Compound 112, N-((1S)-(4,4-difluorocyclohexyl)(6-(((5R)-2-oxo-5-(trifluoromethyl)piperidin-3-yl)methyl)imidazo[1,2-b]pyridazin-2-yl)methyl)-4-ethyl-1,2,5-oxadiazole-3-carboxamide], for which the IC50 lay in the range of 100 to 1000 nM.
As to `O=C(N[C@H](c1cn2nc(CC3C[C@@H](C(F)(F)F)CNC3=O)ccc2n1)C1CCC(F)(F)CC1)c1nonc1C(F)(F)F` (stereo partly drawn) [Compound 113, N-((1S)-(4,4-difluorocyclohexyl)(6-(((5R)-2-oxo-5-(trifluoromethyl)piperidin-3-yl)methyl)imidazo[1,2-b]pyridazin-2-yl)methyl)-4-(trifluoromethyl)-1,2,5-oxadiazole-3-carboxamide], the IC50 was 100 to 1000 nM.
Under `O=C(N[C@H](c1cn2nc(CC3C[C@@H](C(F)(F)F)CNC3=O)ccc2n1)C1CCC(F)(F)CC1)c1conc1C(F)(F)F` (stereo partly drawn) [Compound 114, N-((1S)-(4,4-difluorocyclohexyl)(6-(((5R)-2-oxo-5-(trifluoromethyl)piperidin-3-yl)methyl)imidazo[1,2-b]pyridazin-2-yl)methyl)-3-(trifluoromethyl)isoxazole-4-carboxamide] stands 100 to 1000 nM; under `O=C(N[C@H](c1cn2nc(CC3C[C@@H](C(F)(F)F)CNC3=O)ccc2n1)C1CCC(F)(F)CC1)c1nonc1C(F)F` (stereo partly drawn) [Compound 115, N-((1S)-(4,4-difluorocyclohexyl)(6-(((5R)-2-oxo-5-(trifluoromethyl)piperidin-3-yl)methyl)imidazo[1,2-b]pyridazin-2-yl)methyl)-4-(difluoromethyl)-1,2,5-oxadiazole-3-carboxamide], 100 to 1000 nM.
As to `O=C(N[C@H](c1cn2nc(CC3C[C@@H](C(F)(F)F)CNC3=O)ccc2n1)C1CCC(F)(F)CC1)c1nonc1CC(F)(F)F` (stereo partly drawn) [Compound 116, N-((1S)-(4,4-difluorocyclohexyl)(6-(((5R)-2-oxo-5-(trifluoromethyl)piperidin-3-yl)methyl)imidazo[1,2-b]pyridazin-2-yl)methyl)-4-(2,2,2-trifluoroethyl)-1,2,5-oxadiazole-3-carboxamide], the IC50 was 100 to 1000 nM.
As for `CC(C)c1nonc1C(=O)N[C@H](c1cn2nc(CC3C[C@@H](C(F)(F)F)CNC3=O)ccc2n1)C1CCC(F)(F)CC1` (stereo partly drawn) [Compound 117, N-((1S)-(4,4-difluorocyclohexyl)(6-(((5R)-2-oxo-5-(trifluoromethyl)piperidin-3-yl)methyl)imidazo[1,2-b]pyridazin-2-yl)methyl)-4-isopropyl-1,2,5-oxadiazole-3-carboxamide], the IC50 was < 100 nM.
Under `Cc1nocc1C(=O)N[C@H](c1cn2nc(CC3C[C@@H](C(F)(F)F)CNC3=O)ccc2n1)C1CCC(F)(F)CC1` (stereo partly drawn) [Compound 118, N-((1S)-(4,4-difluorocyclohexyl)(6-(((5R)-2-oxo-5-(trifluoromethyl)piperidin-3-yl)methyl)imidazo[1,2-b]pyridazin-2-yl)methyl)-3-methylisoxazole-4-carboxamide] stands 100 to 1000 nM; under `O=C(N[C@H](c1cn2nc(CC3C[C@@H](C(F)(F)F)CNC3=O)ccc2n1)C1CCC(F)(F)CC1)c1conc1CF` (stereo partly drawn) [Compound 119, N-((1S)-(4,4-difluorocyclohexyl)(6-(((5R)-2-oxo-5-(trifluoromethyl)piperidin-3-yl)methyl)imidazo[1,2-b]pyridazin-2-yl)methyl)-3-(fluoromethyl)isoxazole-4-carboxamide], 100 to 1000 nM.
For `O=C(N[C@H](c1cn2nc(CC3C[C@@H](C(F)(F)F)CNC3=O)ccc2n1)C1CCC(F)(F)CC1)c1conc1CC(F)F` (stereo partly drawn) [Compound 120, N-((1S)-(4,4-difluorocyclohexyl)(6-(((5R)-2-oxo-5-(trifluoromethyl)piperidin-3-yl)methyl)imidazo[1,2-b]pyridazin-2-yl)methyl)-3-(2,2-difluoroethyl)isoxazole-4-carboxamide], the IC50 lay in the range of 100 to 1000 nM.
Under `CC(C)(F)c1nocc1C(=O)N[C@H](c1cn2nc(CC3C[C@@H](C(F)(F)F)CNC3=O)ccc2n1)C1CCC(F)(F)CC1` (stereo partly drawn) [Compound 121, N-((1S)-(4,4-difluorocyclohexyl)(6-(((5R)-2-oxo-5-(trifluoromethyl)piperidin-3-yl)methyl)imidazo[1,2-b]pyridazin-2-yl)methyl)-3-(2-fluoropropan-2-yl)isoxazole-4-carboxamide] stands 100 to 1000 nM; under `O=C(N[C@H](c1cn2nc(CC3C[C@@H](C(F)(F)F)CNC3=O)ccc2n1)C1CCC(F)(F)CC1)c1conc1C1(F)CC1` (stereo partly drawn) [Compound 122, N-((1S)-(4,4-difluorocyclohexyl)(6-(((5R)-2-oxo-5-(trifluoromethyl)piperidin-3-yl)methyl)imidazo[1,2-b]pyridazin-2-yl)methyl)-3-(1-fluorocyclopropyl)isoxazole-4-carboxamide], 100 to 1000 nM.
As for `CC1(c2nocc2C(=O)N[C@H](c2cn3nc(CC4C[C@@H](C(F)(F)F)CNC4=O)ccc3n2)C2CCC(F)(F)CC2)CC1` (stereo partly drawn) [Compound 123, N-((1S)-(4,4-difluorocyclohexyl)(6-(((5R)-2-oxo-5-(trifluoromethyl)piperidin-3-yl)methyl)imidazo[1,2-b]pyridazin-2-yl)methyl)-3-(1-methylcyclopropyl)isoxazole-4-carboxamide], the IC50 was 100 to 1000 nM.
Regarding `O=C(N[C@H](c1cn2nc(CC3C[C@@H](C(F)(F)F)CNC3=O)ccc2n1)C1CCC(F)(F)CC1)c1conc1C1CC(F)(F)C1` (stereo partly drawn) [Compound 124, 3-(3,3-difluorocyclobutyl)-N-((1S)-(4,4-difluorocyclohexyl)(6-(((5R)-2-oxo-5-(trifluoromethyl)piperidin-3-yl)methyl)imidazo[1,2-b]pyridazin-2-yl)methyl)isoxazole-4-carboxamide], the IC50 lay within 100 to 1000 nM.

Source of the values: patent US20250346602A1, “LACTAM SUBSTITUTED IMIDAZOPYRIDAZINE IL-17A MODULATORS AND USES THEREOF” (DICE ALPHA, INC., priority 2022, published 2025).
